Results from PubChem BioAssay (NCI).
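48-hour exposure; five concentrations; linearly interpolated endpoints. TGI marks complete inhibition of growth.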

Assays:
Assay in all cases: DTP human tumour cell line panel, 48 h
[1] = system: MDA-N
[2] = system: SR leukemia
[3] = system: NCI-H460 lung
[4] = system: IGROV1 ovarian
[5] = system: MALME-3M melanoma
[6] = system: MDA-MB-435
[7] = system: NCI/ADR-RES ovarian
[8] = system: CCRF-CEM leukemia
[9] = system: A549 NSCLC
[10] = system: OVCAR-8 ovarian
[11] = system: LOX IMVI melanoma
[12] = system: SNB-19 CNS
[13] = system: MDA-MB-231 breast
[14] = system: SK-MEL-2 melanoma
[15] = system: OVCAR-3 ovarian
[16] = system: NCI-H226 lung
[17] = system: A498 renal
[18] = system: HOP-62 NSCLC
[19] = system: OVCAR-5 ovarian
[20] = system: NCI-H23 lung
[21] = system: KM12 colon
[22] = system: SF-539 CNS
[23] = system: MCF7 breast
[24] = system: UACC-257 melanoma
[25] = system: HOP-92 NSCLC
[26] = system: EKVX NSCLC
[27] = system: PC-3 prostate
[28] = system: UO-31 renal
[29] = system: COLO 205 colon
[30] = system: M14 melanoma
[31] = system: MOLT-4 leukemia
[32] = system: SF-295 CNS
[33] = system: CAKI-1 renal
[34] = system: HT29 colon
[35] = system: SK-OV-3 ovarian
[36] = system: SK-MEL-5 melanoma
[37] = system: K-562 leukemia
[38] = system: T-47D breast
[39] = system: SW-620 colon
[40] = system: RPMI-8226 leukemia
[41] = system: SNB-75 CNS
[42] = system: NCI-H522 lung
[43] = system: HL-60(TB) leukemia
[44] = system: RXF 393 renal
[45] = system: ACHN renal
[46] = system: HCT-15 colon
[47] = system: TK-10 renal
[48] = system: OVCAR-4 ovarian
[49] = system: HCC-2998 colon
[50] = system: 786-0 renal
[51] = system: U251 CNS
[52] = system: HCT-116 colon
[53] = system: DU-145 prostate
[54] = system: SK-MEL-28 melanoma
[55] = system: SN12C renal
[56] = system: SF-268 CNS
[57] = system: HS 578T breast
[58] = system: BT-549 breast
[59] = system: UACC-62 melanoma

Work on `COc1ccc(C=O)cc1Oc1ccc(C[C@H]2c3c(cc(OC)c4c3Oc3cc5c(cc3O4)CCN(C)C5=O)CCN2C)cc1` yielded a TGI [1] of 18.2 µM, a TGI [2] of 21.7 µM and a TGI [3] of 16 µM. The TGI [4] was 13.7 µM, the TGI [5] was 20.2 µM and the TGI [6] was 21.7 µM. It also gave a TGI [7] of 16.2 µM, a TGI [8] of 22.1 µM and a TGI [9] of over 50 µM. The TGI [10] was 15.2 µM, the TGI [11] was 21.8 µM and the TGI [12] was 30.2 µM. It also gave a TGI [13] of 14.6 µM, a TGI [14] of 22.9 µM and a TGI [15] of 15.4 µM. The TGI [16] was 16.8 µM, the TGI [17] was over 50 µM and the TGI [18] was 15.1 µM. For the same molecule, the TGI [19] was 34.8 µM, the TGI [20] was 16 µM and the TGI [21] was 17.1 µM. It also gave a TGI [22] of 18.3 µM, a TGI [23] of 22.5 µM and a TGI [24] of 17.6 µM. For the same molecule, the TGI [25] was 13.7 µM, the TGI [26] was 22.3 µM and the TGI [27] was 17.5 µM. For the same molecule, the TGI [28] was 14.6 µM, the TGI [29] was over 50 µM and the TGI [30] was 19.1 µM. The TGI [31] was 21.7 µM, the TGI [32] was 16.3 µM and the TGI [33] was over 50 µM. For the same molecule, the TGI [34] was 14.4 µM, the TGI [35] was 17.5 µM and the TGI [36] was 19.4 µM. For the same molecule, the TGI [37] was 12.3 µM, the TGI [38] was over 50 µM and the TGI [39] was 30.9 µM. The TGI [40] was 14.3 µM, the TGI [41] was 14 µM and the TGI [42] was 18.1 µM. It also gave a TGI [43] of 17.5 µM, a TGI [44] of 10.8 µM and a TGI [45] of 18.4 µM. The TGI [46] was 27.5 µM, the TGI [47] was 18.4 µM and the TGI [48] was 17.7 µM. For the same molecule, the TGI [49] was 15.1 µM, the TGI [50] was 16.3 µM and the TGI [51] was 22.8 µM. The TGI [52] was 15 µM, the TGI [53] was 25.2 µM and the TGI [54] was 22.7 µM. For the same molecule, the TGI [55] was 43 µM, the TGI [56] was 22.4 µM and the TGI [57] was 21.7 µM.
In the case of `CCc1nc(N)nc(N)c1-c1ccc([N+](=O)[O-])c(Cl)c1`, the TGI [2] is reported as over 100 µM, the TGI [3] is reported as over 100 µM and the TGI [4] is reported as over 100 µM. For the same molecule, the TGI [5] was over 100 µM, the TGI [6] was over 100 µM and the TGI [7] was over 100 µM. The TGI [8] was over 100 µM, the TGI [9] was over 80.8 µM and the TGI [10] was over 100 µM. For the same molecule, the TGI [11] was over 100 µM, the TGI [12] was over 100 µM and the TGI [13] was over 100 µM. The TGI [14] was over 100 µM, the TGI [15] was over 100 µM and the TGI [16] was over 100 µM. For the same molecule, the TGI [17] was over 100 µM, the TGI [18] was over 100 µM and the TGI [19] was over 100 µM. For the same molecule, the TGI [20] was over 100 µM, the TGI [21] was over 100 µM and the TGI [22] was over 94.4 µM. For the same molecule, the TGI [23] was over 100 µM, the TGI [24] was over 100 µM and the TGI [25] was over 100 µM. It also gave a TGI [26] of over 100 µM, a TGI [27] of over 100 µM and a TGI [28] of over 100 µM. For the same molecule, the TGI [29] was over 100 µM, the TGI [30] was over 100 µM and the TGI [31] was over 100 µM. The TGI [32] was over 100 µM, the TGI [33] was over 100 µM and the TGI [34] was over 100 µM. For the same molecule, the TGI [35] was over 100 µM, the TGI [36] was over 82.5 µM and the TGI [37] was over 100 µM. For the same molecule, the TGI [38] was over 100 µM, the TGI [39] was over 100 µM and the TGI [40] was over 100 µM. It also gave a TGI [41] of over 92.5 µM, a TGI [42] of over 52.9 µM and a TGI [43] of over 100 µM. For the same molecule, the TGI [44] was over 100 µM, the TGI [45] was over 100 µM and the TGI [46] was over 100 µM. The TGI [47] was over 100 µM, the TGI [48] was over 100 µM and the TGI [58] was over 100 µM. The TGI [49] was over 100 µM, the TGI [50] was over 100 µM and the TGI [51] was over 100 µM. It also gave a TGI [52] of over 100 µM, a TGI [53] of over 100 µM and a TGI [54] of over 100 µM. It also gave a TGI [55] of over 100 µM, a TGI [56] of over 100 µM and a TGI [59] of over 100 µM. For the same molecule, the TGI [57] was over 100 µM.
